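Values below derive from 48-hour exposures of cells grown in 96-well plates, with endpoints linearly interpolated between the two concentrations bracketing the appropriate inhibition level. GI50: concentration for 50% inhibition of growth.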 Activity calls are given as the source filed them. Cut-off read from the data, not from the text of the source: active = GI50 up to about 1.1 µM and inactive = higher.
Tests used:
Assay in all cases: NCI anticancer screen, dose series, 48 h
UACC-62 = system: UACC-62
NCI-H460 = system: NCI-H460
SF-295 = system: SF-295
HT-29 = system: HT-29
OVCAR-3 = system: OVCAR-3
CAKI-1 = system: CAKI-1
A549 = system: A549
TK-10 = system: TK-10
PC-3 = system: PC-3
U-251 = system: U-251
Hs-578T = system: Hs-578T
SR = system: SR
OVCAR-5 = system: OVCAR-5
MDA-N = system: MDA-N
HCC 2998 = system: HCC 2998
SK-OV-3 = system: SK-OV-3
SNB-19 = system: SNB-19
Malme-3M = system: Malme-3M
EKVX = system: EKVX
DU-145 = system: DU-145
HOP-62 = system: HOP-62
786-0 = system: 786-0
NCI/ADR-RES = system: NCI/ADR-RES
RPMI-8226 = system: RPMI-8226
MDA-MB-435 = system: MDA-MB-435
CCRF-CEM = system: CCRF-CEM
OVCAR-8 = system: OVCAR-8
SN12C = system: SN12C
M14 = system: M14
MDA-MB-231 = system: MDA-MB-231
OVCAR-4 = system: OVCAR-4
BT-549 = system: BT-549
MCF7 = system: MCF7
NCI-H226 = system: NCI-H226
LOX IMVI = system: LOX IMVI
COLO 205 = system: COLO 205
K562 = system: K562
SF-268 = system: SF-268
HCT-116 = system: HCT-116
SK-MEL-28 = system: SK-MEL-28
SW-620 = system: SW-620
UO-31 = system: UO-31
HCT-15 = system: HCT-15
SF-539 = system: SF-539
NCI-H23 = system: NCI-H23
MOLT-4 = system: MOLT-4
HL-60 = system: HL-60
SNB-75 = system: SNB-75
SK-MEL-5 = system: SK-MEL-5
SK-MEL-2 = system: SK-MEL-2
T47D = system: T47D
RXF 393 = system: RXF 393
NCI-H522 = system: NCI-H522
KM12 = system: KM12
ACHN = system: ACHN
HOP-92 = system: HOP-92
A498 = system: A498
IGROV-1 = system: IGROV-1
UACC-257 = system: UACC-257

For `O=C(NCP(=O)(c1ccccc1)c1ccccc1)OCc1ccccc1`, the GI50 (UACC-62) was > 100 µM (inactive), the GI50 (NCI-H460) was > 100 µM (inactive) and the GI50 (SF-295) was 58.6 µM (inactive). For the same compound, the GI50 (HT-29) was > 100 µM (inactive), the GI50 (OVCAR-3) was 54.3 µM (inactive) and the GI50 (CAKI-1) was > 100 µM (inactive). The GI50 (A549) was 66.8 µM (inactive), the GI50 (TK-10) was > 100 µM (inactive) and the GI50 (PC-3) was 64.3 µM (inactive). The GI50 (U-251) was 84.5 µM (inactive), the GI50 (Hs-578T) was 43.6 µM (inactive) and the GI50 (SR) was > 100 µM (inactive). The GI50 (OVCAR-5) was > 100 µM (inactive), the GI50 (MDA-N) was > 100 µM (inactive) and the GI50 (HCC 2998) was > 100 µM (inactive). For the same compound, the GI50 (SK-OV-3) was 67.3 µM (inactive), the GI50 (SNB-19) was > 100 µM (inactive) and the GI50 (Malme-3M) was > 100 µM (inactive). The GI50 (EKVX) was > 100 µM (inactive), the GI50 (DU-145) was > 100 µM (inactive) and the GI50 (HOP-62) was 27.4 µM (inactive). For the same compound, the GI50 (786-0) was 37.2 µM (inactive), the GI50 (NCI/ADR-RES) was 73.5 µM (inactive) and the GI50 (RPMI-8226) was > 100 µM (inactive). The GI50 (MDA-MB-435) was > 100 µM (inactive), the GI50 (CCRF-CEM) was > 100 µM (inactive) and the GI50 (OVCAR-8) was > 100 µM (inactive). The GI50 (SN12C) was > 100 µM (inactive), the GI50 (M14) was > 100 µM (inactive) and the GI50 (MDA-MB-231) was 60.1 µM (inactive). The GI50 (OVCAR-4) was 43.5 µM (inactive), the GI50 (BT-549) was > 100 µM (inactive) and the GI50 (MCF7) was > 100 µM (inactive). For the same compound, the GI50 (NCI-H226) was > 100 µM (inactive), the GI50 (LOX IMVI) was > 100 µM (inactive) and the GI50 (COLO 205) was > 100 µM (inactive). For the same compound, the GI50 (K562) was > 100 µM (inactive), the GI50 (SF-268) was 21.4 µM (inactive) and the GI50 (HCT-116) was > 100 µM (inactive). The GI50 (SK-MEL-28) was > 100 µM (inactive), the GI50 (SW-620) was > 100 µM (inactive) and the GI50 (UO-31) was > 100 µM (inactive). The GI50 (HCT-15) was over 100 µM, the GI50 (SF-539) was > 100 µM (inactive) and the GI50 (NCI-H23) was > 100 µM (inactive). The GI50 (MOLT-4) was > 100 µM (inactive), the GI50 (HL-60) was > 100 µM (inactive) and the GI50 (SNB-75) was 6.65 µM (inactive). For the same compound, the GI50 (SK-MEL-5) was > 100 µM (inactive), the GI50 (SK-MEL-2) was > 100 µM (inactive) and the GI50 (T47D) was > 100 µM (inactive). For the same compound, the GI50 (RXF 393) was 82.6 µM (inactive), the GI50 (NCI-H522) was 39.4 µM (inactive) and the GI50 (KM12) was > 100 µM (inactive). The GI50 (ACHN) was > 100 µM (inactive), the GI50 (HOP-92) was 40 µM (inactive) and the GI50 (A498) was > 100 µM (inactive). For the same compound, the GI50 (IGROV-1) was > 100 µM (inactive).

With `COc1cc(/C=[N+](\[O-])c2ccccc2Cl)ccc1OC(=S)S` the GI50 (UACC-62) was 21 µM (inactive), the GI50 (NCI-H460) was 27.2 µM (inactive) and the GI50 (SF-295) was 30.3 µM (inactive). The GI50 (HT-29) was 42.5 µM (inactive), the GI50 (UACC-257) was 26.4 µM (inactive) and the GI50 (OVCAR-3) was 30.8 µM (inactive). The GI50 (CAKI-1) was 31.7 µM (inactive), the GI50 (A549) was 39.8 µM (inactive) and the GI50 (TK-10) was 64.4 µM (inactive). The GI50 (PC-3) was 38.2 µM (inactive), the GI50 (U-251) was 38.5 µM (inactive) and the GI50 (Hs-578T) was 61.7 µM (inactive). For the same compound, the GI50 (SR) was 26.1 µM (inactive), the GI50 (OVCAR-5) was > 100 µM (inactive) and the GI50 (MDA-N) was 29 µM (inactive). The GI50 (HCC 2998) was 37 µM (inactive), the GI50 (SK-OV-3) was 43.9 µM (inactive) and the GI50 (SNB-19) was 55.1 µM (inactive). For the same compound, the GI50 (Malme-3M) was 38.4 µM (inactive), the GI50 (EKVX) was 29.2 µM (inactive) and the GI50 (DU-145) was 72.1 µM (inactive). For the same compound, the GI50 (HOP-62) was 39.9 µM (inactive), the GI50 (786-0) was 50.4 µM (inactive) and the GI50 (NCI/ADR-RES) was 26.7 µM (inactive). The GI50 (RPMI-8226) was 29.2 µM (inactive), the GI50 (MDA-MB-435) was 20.8 µM (inactive) and the GI50 (OVCAR-8) was 32.7 µM (inactive). For the same compound, the GI50 (SN12C) was 45.7 µM (inactive), the GI50 (M14) was 30.9 µM (inactive) and the GI50 (MDA-MB-231) was 53.3 µM (inactive). The GI50 (OVCAR-4) was 3.01 µM (inactive), the GI50 (BT-549) was 26.9 µM (inactive) and the GI50 (MCF7) was 27.6 µM (inactive). For the same compound, the GI50 (NCI-H226) was 57.4 µM (inactive), the GI50 (LOX IMVI) was 36.9 µM (inactive) and the GI50 (COLO 205) was 21.8 µM (inactive). For the same compound, the GI50 (K562) was 25.9 µM (inactive), the GI50 (SF-268) was 42.7 µM (inactive) and the GI50 (HCT-116) was 32.5 µM (inactive). For the same compound, the GI50 (SK-MEL-28) was 35 µM (inactive), the GI50 (SW-620) was 37.1 µM (inactive) and the GI50 (UO-31) was 39.6 µM (inactive). The GI50 (HCT-15) was 33.2 µM, the GI50 (SF-539) was 68.7 µM (inactive) and the GI50 (NCI-H23) was 28.5 µM (inactive). The GI50 (MOLT-4) was 27 µM (inactive), the GI50 (HL-60) was 20.1 µM (inactive) and the GI50 (SNB-75) was 18 µM (inactive). The GI50 (SK-MEL-5) was 16.6 µM (inactive), the GI50 (SK-MEL-2) was 32.5 µM (inactive) and the GI50 (T47D) was 18.8 µM (inactive). For the same compound, the GI50 (RXF 393) was 26.4 µM (inactive), the GI50 (NCI-H522) was 26.5 µM (inactive) and the GI50 (KM12) was 15.1 µM (inactive). For the same compound, the GI50 (ACHN) was 34 µM (inactive), the GI50 (HOP-92) was 10.1 µM (inactive) and the GI50 (A498) was 18.9 µM (inactive). The GI50 (IGROV-1) was 49.4 µM (inactive).
